We go through 24 molecules from article PMC6264139, “Schiff Bases of Indoline-2,3-dione: Potential Novel Inhibitors of Mycobacterium Tuberculosis (Mtb) DNA Gyrase ^†” (Molecules, 2011).

Several values for one entry are separate records, joined by “and”; a condition that tells them apart may be missing. Identical values can stand only once.

Sequence of Mtb DNA gyrase (P9WG45 whole entry): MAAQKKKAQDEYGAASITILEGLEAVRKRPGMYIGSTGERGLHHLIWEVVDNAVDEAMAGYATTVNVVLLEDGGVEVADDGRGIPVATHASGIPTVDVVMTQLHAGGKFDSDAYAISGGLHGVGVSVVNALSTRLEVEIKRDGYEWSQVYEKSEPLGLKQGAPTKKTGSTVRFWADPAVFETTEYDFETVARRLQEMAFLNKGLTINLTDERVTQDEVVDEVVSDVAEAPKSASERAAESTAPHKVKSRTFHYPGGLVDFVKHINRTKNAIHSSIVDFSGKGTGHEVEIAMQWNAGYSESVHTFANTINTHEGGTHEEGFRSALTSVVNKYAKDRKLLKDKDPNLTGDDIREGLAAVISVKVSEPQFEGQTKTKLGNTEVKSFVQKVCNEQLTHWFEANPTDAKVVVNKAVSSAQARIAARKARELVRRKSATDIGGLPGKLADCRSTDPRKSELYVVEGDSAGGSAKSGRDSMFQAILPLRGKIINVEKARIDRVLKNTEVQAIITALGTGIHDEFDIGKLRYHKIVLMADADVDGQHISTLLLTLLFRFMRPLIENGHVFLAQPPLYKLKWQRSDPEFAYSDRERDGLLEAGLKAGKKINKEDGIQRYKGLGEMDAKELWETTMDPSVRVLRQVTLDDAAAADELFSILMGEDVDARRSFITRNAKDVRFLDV
Sequence of Mtb DNA gyrase (P9WG47 whole entry): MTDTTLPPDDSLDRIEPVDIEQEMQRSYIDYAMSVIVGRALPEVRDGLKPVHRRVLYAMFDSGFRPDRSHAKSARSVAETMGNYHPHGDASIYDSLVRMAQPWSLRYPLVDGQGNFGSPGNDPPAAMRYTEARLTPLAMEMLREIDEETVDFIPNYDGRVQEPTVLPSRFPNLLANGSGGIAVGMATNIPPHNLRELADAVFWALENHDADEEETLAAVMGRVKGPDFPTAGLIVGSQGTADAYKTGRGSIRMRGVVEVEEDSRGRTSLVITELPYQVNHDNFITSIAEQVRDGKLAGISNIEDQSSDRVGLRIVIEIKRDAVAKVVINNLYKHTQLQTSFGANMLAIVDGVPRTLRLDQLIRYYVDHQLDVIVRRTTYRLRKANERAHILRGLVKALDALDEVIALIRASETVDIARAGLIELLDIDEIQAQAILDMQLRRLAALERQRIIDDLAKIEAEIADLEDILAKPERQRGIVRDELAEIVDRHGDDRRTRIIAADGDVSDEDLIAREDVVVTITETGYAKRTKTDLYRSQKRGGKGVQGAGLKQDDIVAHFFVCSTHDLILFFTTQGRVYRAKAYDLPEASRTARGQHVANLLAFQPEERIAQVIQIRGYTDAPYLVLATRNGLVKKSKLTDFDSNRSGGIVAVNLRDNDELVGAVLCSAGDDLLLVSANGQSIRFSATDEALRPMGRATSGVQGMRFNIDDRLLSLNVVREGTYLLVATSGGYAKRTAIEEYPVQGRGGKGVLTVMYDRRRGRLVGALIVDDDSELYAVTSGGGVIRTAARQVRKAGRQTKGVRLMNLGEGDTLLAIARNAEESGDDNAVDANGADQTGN

One assay addresses Mtb DNA gyrase (Mycobacterium tuberculosis, UniProt P9WG45+P9WG47). In words: Mtb DNA gyrase supercoiling inhibition assay. The class given is biochemical, Mycobacterium tuberculosis strain H37RV. The conditions noted are these: Mtb wt gyrase IC50, supercoiling of relaxed pBR322 DNA, 60 minutes at 37 °C, inhibitor 1.56 to 200 µM. The protocol:
Two-fold increases in inhibitor concentrations ranging from 1.56 to 200 µM were added to pBR322 relaxed DNA in the presence of Mtb DNA gyrase enzyme. Control lanes are: Lane 1, DNA with no enzyme or inhibitor and Lane 2, DNA with enzyme but no inhibitor. IC50 values were calculated by measurement of fluorescence intensity after ethidium bromide staining of the supercoiling band at the bottom of the lanes. […] (b) IC50 curves of supercoiling (SC) fluorescence data. DNA fluorescence was quantitated with an Alpha Imager 2200 Analysis System (Cell Biosciences, Santa Clara, CA, USA) and IC50 values were determined by nonlinear regression analysis with Graphpad Prism software (Graphpad Software, Inc., San Diego, CA, USA). IDV = Integrated Density Value.
The isatin Schiff bases synthesized and characterized in this report were tested for their ability to inhibit supercoiling activity of DNA gyrase. DNA gyrase is the only enzyme known so far having the ability to introduce negative supercoils in DNA. In all the species of mycobacteria, including Mtb, DNA gyrase is the sole type II topoisomerase carrying out the reactions of both gyrase and topoisomerase IV. Since the DNA gyrase from Mtb and M. smegmatis are highly similar at a functional as well as a protein sequence level and antigenic properties, Mtb strain H37RV DNA gyrase has been used for carrying out the supercoiling assays.
Relaxed pBR322 DNA (0.1 µg) was incubated with 1 unit of Mtb DNA gyrase for 60 minutes at 37 °C in the following buffer: 2 mM ATP, 4 mM DTT, 25 mM KCl, 6 mM magnesium acetate, 50 µg/mL of molecular grade BSA, 0.1 mg/mL E. coli tRNA, 2mM spermidine, 100 mM potassium glutamate and 40 mM Tris-HCL pH 7.5 (20 µL). Reactions are stopped with 0.5% SDS, 6 mM EDTA, 5.35% glycerol, and 0.013% bromophenol blue (10 µL). Reactions are then loaded onto a 1% agarose/ TBE gel to separate supercoiled and relaxed DNA forms and run overnight at 22 volts. Bands are visualized by staining with 0.5 µg/mL EtBr in 1 × TBE for 40 minutes then washing with dH2O for 120 minutes. Quantification is done on the AlphaImager 2200 system. DNA gyrase subunits, GyrA and GyrB, were isolated from Mtb strain H37RV genomic DNA, expressed and purified in pET overexpression constructs in E coli. One unit of DNA supercoiling activity is defined as the amount that converts ~50% relaxed DNA, in the standard assay, to supercoiled DNA in 60 minutes at 37 °C.
Usually IC50 stands for the concentration that gives 50% inhibition. `Cc1ccc2c(c1)/C(=N/NC(=O)c1ccncc1)C(=O)N2Cc1ccccc1` [Compound 13, (Z)-N'-(1-Benzyl-5-methyl-2-oxoindolin-3-ylidene)isonicotinohydrazide] gave an IC50 of over 200 µM.

Turning to `O=C1Nc2ccc(F)cc2/C1=N/NC(=O)c1ccco1` [Compound 15, (Z)-N'-(5-Fluoro-2-oxoindolin-3-ylidene)furan-2-carbhydrazide], the IC50 was over 200 µM.

Consider `O=C(N/N=C1\C(=O)N(Cc2ccccc2)c2ccccc21)c1ccncc1` [Compound 10, (Z)-N'-(1-Benzyl-2-oxoindolin-3-ylidene)isonicotinohydrazide], for which the IC50 is over 200 µM.

`O=C1Nc2ccc(Cl)cc2/C1=N/NC(=O)c1ccncc1` [Compound 4, (Z)-N'-(5-Chloro-2-oxoindolin-3-ylidene)isonicotinohydrazide] registered an IC50 of over 200 µM.

The molecule `O=C1Nc2ccc(F)cc2/C1=N/NC(=O)c1ccncc1` [Compound 5, (Z)-N'-(5-Fluoro-2-oxoindolin-3-ylidene)isonicotinohydrazide] returned an IC50 of over 200 µM.

Regarding `O=C1Nc2ccc(OC(F)(F)F)cc2/C1=N/NC(=O)c1ccncc1` [Compound 7, (Z)-N'-(2-Oxo-5-(trifluoromethoxy)indolin-3-ylidene)isonicotinohydrazide], the half-maximal inhibitory concentration (IC50) was over 200 µM.

`Cc1ccc2c(c1)/C(=N/NC(=O)c1cc3ccccc3o1)C(=O)N2` [Compound 18, (Z)-N'-(5-Methyl-2-oxoindolin-3-ylidene)benzofuran-2-carbohydrazide]: the IC50 was ~50 µM and 56.3 µM.

The molecule `O=C1Nc2ccccc2/C1=N/NC(=O)c1ccncc1` [Compound 3, (Z)-N'-(2-Oxoindolin-3-ylidene)isonicotinohydrazide] came in with a half-maximal inhibitory concentration (IC50) of over 200 µM.

Regarding `O=C1Nc2ccc([N+](=O)[O-])cc2/C1=N/NC(=O)c1ccncc1` [Compound 8, (Z)-N'-(5-Nitro-2-oxoindolin-3-ylidene)isonicotinohydrazide], the midpoint of inhibition, the IC50, lay at 157 µM.

On to `O=C(N/N=C1\C(=O)N(Cc2ccccc2)c2ccc(Cl)cc21)c1ccncc1` [Compound 11, (Z)-N'-(1-Benzyl-5-chloro-2-oxoindolin-3-ylidene)isonicotinohydrazide], for which the 50% inhibitory concentration (IC50) was over 200 µM.

Molecule `O=C1Nc2ccccc2/C1=N/NC(=O)c1ccc([N+](=O)[O-])o1` [Compound 16, (Z)-5-Nitro-N'-(2-Oxoindolin-3-ylidene)furan-2-carbohydrazide] showed an IC50 of over 200 µM.

For `O=C1Nc2ccc(Cl)cc2/C1=N/NC(=O)c1cc2ccccc2o1` [Compound 17, (Z)-N'-(5-Chloro-2-oxoindolin-3-ylidene)benzofuran-2-carbohydrazide], the 50% inhibitory concentration (IC50) was > 200 µM and 294 µM.

In turn, `O=C1Nc2ccc(OC(F)(F)F)cc2/C1=N/NC(=O)c1ccccc1Nc1cccc(C(F)(F)F)c1` [Compound 25, (Z)-N'-(2-Oxo-5-(trifluoromethoxy)indolin-3-ylidene)-2-(3-(trifluoromethyl)phenylamino)-benzo-hydrazide] yielded an IC50 of over 200 µM.

`O=C(N/N=C1\C(=O)N(c2ccccc2)c2ccccc21)c1ccncc1` [Compound 9, (Z)-N'-(2-Oxo-1-phenylindolin-3-ylidene)isonicotinohydrazide] yielded a 50% inhibitory concentration (IC50) of over 200 µM.

For `O=C1Nc2ccc(F)cc2/C1=N/NC(=O)c1cc2cc([N+](=O)[O-])ccc2o1` [Compound 21, (Z)-N'-(5-Fluoro-2-oxoindolin-3-ylidene)-5-nitrobenzofuran-2-carbhydrazide], the IC50 is over 200 µM.

The molecule `O=C1Nc2ccc([N+](=O)[O-])cc2/C1=N/NC(=O)c1cc2ccccc2o1` [Compound 19, (Z)-N'-(5-Nitro-2-oxoindolin-3-ylidene)benzofuran-2-carbohydrazide] had an IC50 of 89.9 µM.

On to `O=C(N/N=C1\C(=O)N(c2ccccc2)c2ccccc21)c1cc2ccccc2o1` [Compound 20, (Z)-N'-(2-Oxo-1-phenylindolin-3-ylidene)benzofuran-2-carbohydrazide], for which the IC50 is over 200 µM.

Turning to `O=C(N/N=C1\C(=O)N(Cc2ccccc2)c2ccc(F)cc21)c1ccncc1` [Compound 12, (Z)-N'-(1-Benzyl-5-fluoro-2-oxoindolin-3-ylidene)isonicotinohydrazide], the half-inhibitory concentration (IC50) is over 200 µM.

Turning to `Cc1ccc2c(c1)/C(=N/NC(=O)c1ccncc1)C(=O)N2` [Compound 6, (Z)-N'-(5-Methyl-2-oxoindolin-3-ylidene)isonicotinohydrazide], the IC50 was over 200 µM.

The molecule `CCn1cc(C(=O)N/N=C2\C(=O)Nc3ccc(F)cc32)c(=O)c2ccc(C)nc21` [Compound 26, (Z)-1-Ethyl-N'-(5-fluoro-2-oxoindolin-3-ylidene)-7-methyl-4-oxo-1,4-dihydro-1,8-naphthyridine-3-carbohydrazide] came in with a concentration for half-maximal inhibition (IC50) of over 200 µM.

On to `Cc1ccc2c(c1)/C(=N/NC(=O)c1ccccc1Nc1c(Cl)ccc(C)c1Cl)C(=O)N2` [Compound 24, (Z)-2-(2,6-Dichloro-3-methylphenylamino)-N'-(5-methyl-2-oxoindolin-3-ylidene)-benzohydrazide], for which the IC50 is over 200 µM.

With `Cc1cccc(Nc2ccccc2C(=O)N/N=C2\C(=O)N(Cc3ccccc3)c3ccccc32)c1C` [Compound 23, (Z)-N'-(1-Benzyl-2-oxoindolin-3-ylidene)-2-(2,3-dimethylphenylamino)benzohydrazide], the IC50 was over 200 µM.

The molecule `O=C1Nc2ccccc2/C1=N/NC(=O)c1cccnc1` [Compound 14, (Z)-N'-(2-Oxoindolin-3-ylidene)nicotinohydrazide] registered a concentration for half-maximal inhibition (IC50) of over 200 µM.

Still in this assay, the particulars now being: supercoiling of relaxed pBR322 DNA, 60 minutes at 37 °C, inhibitor 1.56 to 200 µM; read-out: Mtb wt gyrase IC50.
As for `O=C1/C(=N\NC(=O)C23CC4CC(CC(C4)C2)C3)c2ccccc2N1c1ccccc1` [Compound 22, (Z)-N'-(2-oxo-1-phenylindolin-3-ylidene)adamantane-1-carbohydrazide], the IC50 is over 200 µM.
